The values below come from article PMC5792488, “Structural basis of the molecular ruler mechanism of a bacterial glycosyltransferase” (Nature Communications, 2018).

The target of assay [1] is T1, PglH (Campylobacter jejuni, UniProt Q0P9C5).
T1 construct: PglH with C-terminal His10 tag
Put plainly: ([…] Å); IC50 with purified PglH. The format is biochemical.

Assay [2] addresses T1, PglH. Put plainly: crystal structure of ternary complex with synthetic LLO ([…] Å); IC50 with purified PglH. The format is biochemical.

T1 sequence (Q0P9C5 whole entry): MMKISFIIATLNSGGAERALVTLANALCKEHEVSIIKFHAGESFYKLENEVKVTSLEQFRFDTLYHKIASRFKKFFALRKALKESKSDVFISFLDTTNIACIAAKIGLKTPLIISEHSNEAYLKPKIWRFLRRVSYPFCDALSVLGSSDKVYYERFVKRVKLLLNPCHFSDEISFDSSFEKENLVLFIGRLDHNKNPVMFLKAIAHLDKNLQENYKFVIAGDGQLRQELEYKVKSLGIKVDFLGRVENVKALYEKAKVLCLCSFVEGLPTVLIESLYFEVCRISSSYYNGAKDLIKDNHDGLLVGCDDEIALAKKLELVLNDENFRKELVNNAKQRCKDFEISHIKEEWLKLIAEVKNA

For `CC(=O)N[C@@H]1[C@@H](O)[C@@H](O)[C@@H](CO)O[C@@H]1CP(=O)(O)OP(=O)(O)OC[C@@H]1O[C@@H](n2ccc(=O)[nH]c2=O)[C@H](O)[C@@H]1O` [UDP-CH2-GalNAc], on PglH [1], inhibition was half-maximal at 303 ± 24 µM (IC50).
On to `O=c1ccn([C@@H]2O[C@H](COP(=O)(O)OP(=O)(O)O)[C@@H](O)[C@H]2O)c(=O)[nH]1` [UDP], for which the midpoint of inhibition against PglH [2], the IC50, lay at 1020 ± 87 µM.

In general, IC50 refers to the concentration at which inhibition is half-maximal. Read a low IC50 as greater potency in that assay.
